This passage reports IC50 and MIC results from ChEMBL document CHEMBL4184156, “Repurposing Hsp90 inhibitors as antibiotics targeting histidine kinases” (Bioorg Med Chem Lett, 2017).

Values after ≈ are worked out from the molar mass of the structure shown.

Test [1] addresses T1, Phosphate regulon sensor protein phoR (Staphylococcus aureus subsp. aureus CN1, UniProt T1Y9P4).
T1 sequence (T1Y9P4 whole entry): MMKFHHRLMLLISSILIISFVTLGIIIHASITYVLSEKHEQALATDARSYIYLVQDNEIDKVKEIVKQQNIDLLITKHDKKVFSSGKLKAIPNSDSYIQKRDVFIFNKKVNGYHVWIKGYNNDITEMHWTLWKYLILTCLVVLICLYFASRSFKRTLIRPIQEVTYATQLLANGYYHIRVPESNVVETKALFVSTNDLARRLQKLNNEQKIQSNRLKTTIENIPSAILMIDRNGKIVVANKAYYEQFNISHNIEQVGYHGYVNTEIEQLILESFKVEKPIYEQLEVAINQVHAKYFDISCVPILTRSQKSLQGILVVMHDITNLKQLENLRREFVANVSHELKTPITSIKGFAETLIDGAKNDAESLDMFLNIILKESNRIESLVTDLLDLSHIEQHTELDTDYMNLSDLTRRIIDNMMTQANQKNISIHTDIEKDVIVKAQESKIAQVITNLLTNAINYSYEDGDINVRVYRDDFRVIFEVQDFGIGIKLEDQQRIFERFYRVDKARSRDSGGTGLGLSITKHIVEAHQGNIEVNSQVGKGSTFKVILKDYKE
The experiment in a line: Inhibition of Staphylococcus aureus DHp-catalytic domain PhoR autophosphorylation expressed in Escherichia coli RIL in presence of gamma-32P-ATP by SDS-PAGE analysis.

The test system of test [2] is Escherichia coli. The experiment in a line: Antimicrobial activity against Escherichia coli CFT073 after 24 hrs by double dilution method. The test is classed as functional. The note with it: CFT073, 24 h.
The next test concerns Staphylococcus aureus. The experiment in a line: Antimicrobial activity against Staphylococcus aureus 20231 after 24 hrs by double dilution method. The test is classed as functional. The conditions noted are these: Staphylococcus aureus, 20231, 24 h.
The target of test [3] is T2, Phosphate regulon sensor protein PhoR (Escherichia coli (strain K12), UniProt P08400).
T2 sequence (P08400 whole entry): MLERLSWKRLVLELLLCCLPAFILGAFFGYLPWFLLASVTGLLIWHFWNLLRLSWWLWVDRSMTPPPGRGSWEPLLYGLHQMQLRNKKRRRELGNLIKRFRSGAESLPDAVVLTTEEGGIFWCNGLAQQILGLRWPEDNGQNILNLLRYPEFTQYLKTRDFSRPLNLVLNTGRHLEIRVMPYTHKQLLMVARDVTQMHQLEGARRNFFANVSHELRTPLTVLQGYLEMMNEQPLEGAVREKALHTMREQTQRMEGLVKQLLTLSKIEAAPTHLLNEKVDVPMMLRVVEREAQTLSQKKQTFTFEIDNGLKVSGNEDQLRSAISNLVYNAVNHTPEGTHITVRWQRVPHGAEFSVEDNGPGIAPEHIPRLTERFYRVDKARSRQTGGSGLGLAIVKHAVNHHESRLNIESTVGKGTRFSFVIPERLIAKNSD
Put plainly: Inhibition of Escherichia coli DHp-catalytic domain PhoR autophosphorylation expressed in Escherichia coli RIL in presence of gamma-32P-ATP by SDS-PAGE analysis.

For test [4], the target named is T3, Sensor protein kinase WalK family protein (Streptococcus pneumoniae PCS8203, UniProt A0A0H2UQD0).
T3 sequence (A0A0H2UQD0 whole entry): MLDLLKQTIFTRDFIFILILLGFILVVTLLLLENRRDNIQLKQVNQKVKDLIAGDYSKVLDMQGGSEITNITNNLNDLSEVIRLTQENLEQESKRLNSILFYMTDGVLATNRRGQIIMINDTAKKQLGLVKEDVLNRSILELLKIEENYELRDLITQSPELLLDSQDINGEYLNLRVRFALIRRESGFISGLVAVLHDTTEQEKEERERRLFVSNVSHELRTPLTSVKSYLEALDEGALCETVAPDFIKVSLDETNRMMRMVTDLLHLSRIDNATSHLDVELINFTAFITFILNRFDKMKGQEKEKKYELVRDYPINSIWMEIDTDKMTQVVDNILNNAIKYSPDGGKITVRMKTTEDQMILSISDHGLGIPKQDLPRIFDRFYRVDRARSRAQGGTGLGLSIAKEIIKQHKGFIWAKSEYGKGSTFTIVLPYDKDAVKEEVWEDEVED
Put plainly: Inhibition of Streptococcus pneumoniae VicK preincubated for 30 mins followed by [gamma-33P]ATP addition after 30 mins by SDS-PAGE method.

The target of the next test is T4, Chemotaxis protein CheA (Escherichia coli (strain K12), UniProt P07363).
T4 sequence (P07363 whole entry): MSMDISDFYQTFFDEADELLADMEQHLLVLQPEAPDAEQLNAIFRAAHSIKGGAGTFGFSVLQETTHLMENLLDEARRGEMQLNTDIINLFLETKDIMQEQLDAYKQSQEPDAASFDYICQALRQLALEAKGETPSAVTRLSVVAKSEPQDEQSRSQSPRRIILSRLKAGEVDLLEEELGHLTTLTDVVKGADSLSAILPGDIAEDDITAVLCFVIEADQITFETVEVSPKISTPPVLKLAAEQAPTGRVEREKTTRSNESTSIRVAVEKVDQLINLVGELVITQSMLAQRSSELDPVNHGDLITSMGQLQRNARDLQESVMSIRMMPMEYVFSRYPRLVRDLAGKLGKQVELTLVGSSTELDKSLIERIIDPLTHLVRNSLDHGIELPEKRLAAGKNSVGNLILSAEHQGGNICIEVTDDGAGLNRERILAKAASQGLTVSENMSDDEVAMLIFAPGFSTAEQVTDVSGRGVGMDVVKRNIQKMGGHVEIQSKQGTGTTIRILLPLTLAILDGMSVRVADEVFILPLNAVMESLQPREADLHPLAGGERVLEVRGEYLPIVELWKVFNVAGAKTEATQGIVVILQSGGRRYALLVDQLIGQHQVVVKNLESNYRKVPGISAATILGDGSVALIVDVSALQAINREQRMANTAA
The experiment in a line: Inhibition of Escherichia coli CheA preincubated for 30 mins followed by [gamma-33P]ATP addition after 30 mins by SDS-PAGE method.

The test system of test [5] is Escherichia coli. Put plainly: Antimicrobial activity against Escherichia coli DC2 after 20 hrs by Mueller-Hinton Broth microdilution method. The conditions noted are these: DC2, 20 h. It counts as functional.
In a further test the test system is Bacillus subtilis. Put plainly: Antimicrobial activity against Bacillus subtilis 3610 after 20 hrs by Mueller-Hinton Broth microdilution method. The test is classed as functional. The note with it: subsp. subtilis str. NCIB 3610, 20 h. A general note: Broth dilution looks for growth in wells or tubes with falling amounts of substance.
Test [6] is described as follows: Inhibition of Thermotoga maritima HK853 preincubated for 30 mins followed by B-ATPgammaS addition after 1 hr in dark by in-gel fluorescence analysis.
Test [7] deals with Staphylococcus epidermidis. The experiment in a line: Antimicrobial activity against Staphylococcus epidermidis ATCC 35984 after 10 hrs. It counts as functional. The note with it: ATCC 35984, 10 h.
Test [8] deals with T5, Sensor protein kinase WalK (Staphylococcus epidermidis (strain ATCC 35984 / RP62A), UniProt Q5HK19).
T5 sequence (Q5HK19 whole entry): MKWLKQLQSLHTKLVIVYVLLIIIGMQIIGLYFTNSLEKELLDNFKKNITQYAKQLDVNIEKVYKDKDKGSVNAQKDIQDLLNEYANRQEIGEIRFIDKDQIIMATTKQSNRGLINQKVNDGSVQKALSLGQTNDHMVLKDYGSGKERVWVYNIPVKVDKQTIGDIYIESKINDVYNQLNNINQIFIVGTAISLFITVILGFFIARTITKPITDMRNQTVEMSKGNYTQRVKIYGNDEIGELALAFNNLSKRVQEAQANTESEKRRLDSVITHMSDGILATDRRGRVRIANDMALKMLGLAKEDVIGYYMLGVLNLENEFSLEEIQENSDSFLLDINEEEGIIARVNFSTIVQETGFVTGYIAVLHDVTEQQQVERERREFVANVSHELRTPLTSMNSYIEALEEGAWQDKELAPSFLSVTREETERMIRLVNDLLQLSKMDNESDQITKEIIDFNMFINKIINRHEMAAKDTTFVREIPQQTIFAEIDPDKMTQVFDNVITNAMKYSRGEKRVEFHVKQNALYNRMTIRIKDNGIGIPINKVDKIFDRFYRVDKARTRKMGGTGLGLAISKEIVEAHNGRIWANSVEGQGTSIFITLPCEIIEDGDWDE
The experiment in a line: Inhibition of recombinant Staphylococcus epidermidis ATCC 35984 N-terminal GB1-tagged YycG expressed in Escherichia coli BL21 (DE3) preincubated for 30 mins followed by ATP addition after 30 mins by kinase-glo assay. Background: Kinase-Glo reads ATP consumption through a luciferase reaction.

For `CCC(c1ccc(O)cc1)C(CC)c1ccc(F)cc1` (stereo unspecified), the IC50 in [1] is 212 µM; in [3] it was 16 µM. The values for the MIC in the test on Escherichia coli [2] and with Staphylococcus aureus were over 500 µg/mL and 8 µg/mL (≈ 29.4 µM), respectively.
Regarding `O=c1cc(-c2ccc(O)c(O)c2)oc2cc(O)cc(O)c12` [LUTEOLIN], the IC50 in test [4] worked out at 216 µM; at Chemotaxis protein CheA, 111 µM; in [6] it was 15.1 µM. In addition, the figures for the minimal inhibitory concentration (MIC) in the test with Escherichia coli [5] and against Bacillus subtilis were 8 µg/mL (≈ 27.9 µM) and over 128 µg/mL, respectively.
In test [7], `O=C(O)c1cccc(-c2ccc(/C=c3\sc4n(c3=O)C(c3ccc(F)cc3)C=C(c3ccccc3)N=4)o2)c1` (stereo unspecified) had an MIC of 1.6 µg/mL (≈ 3.06 µM). Also, in test [8], the IC50 came out at 24 µM.

By IC50 is commonly meant the concentration needed to halve the response being measured. In general, MIC refers to the lowest concentration found to suppress growth. Higher therefore signals weaker potency.
